According to PMC8910920 (International Journal of Molecular Sciences, 2022):

Legend:
[1] = test system: CCI rats, mechanical hypersensitivity; assay: CCI model of neuropathic pain, mechanical sensitivity (automatized von Frey test); assay type: in vivo, rat
Procedure: The CCI model of neuropathic pain allowed the evaluation of the effect RGM8-51 on cold, heat and mechanical sensitivity, as assayed by the acetone test, the Hargreaves test, and the automatized von Frey test, respectively. RGM8-51 was applied either locally (i.pl.; 10 µg) in the affected paw or systemically (intraperitoneally, i.p., 10 and 30 mg/kg) and the effect evaluated before (Baseline) and after CCI surgery. The nocifensive response after administration of RGM8-51 was compared with that of vehicle, while non-operated animals and the uninjured (contralateral) hind paw in CCI animals were used as controls.
Adult male Sprague-Dawley rats (weighing 200–220 g/6–8 weeks old) were used in these experiments. All experimental procedures were conducted according to the animal welfare guidelines of the European Community (European Directive 2010/63/UE) to minimize animal suffering and were approved by Universidad Complutense de Madrid and Comunidad de Madrid ethical committees on animal experimentation (PROEX 207.8/21). […]
For behavioral testing, rats were placed in individual methacrylate boxes with a wire mesh floor, and after a period of 15 min acclimatization, the cold, heat and mechanical sensitivity of the ipsilateral and contralateral paws was determined. Cold sensitivity was assessed with the acetone test. In total, 100 µL acetone were locally applied to the plantar surface of the hind paw and the duration of the subsequent nocifensive response (licking, brushing, and flinching of the paw) was determined during 60 s. Acetone application and assessment were repeated 2 times with a 5 min interval and the sum of the two values was recorded. Heat sensitivity was determined with the Hargreaves test, which uses infrared light as a heat source, with a Hargreaves apparatus (Serie 8, Model 336, IITC Life Science, Woodland Hills, CA USA). The light beam was directed to the plantar surface of the hind paw and the time from the beginning of irradiation to the appearance of first paw withdrawal movement was measured (paw withdrawal latency). […]

hCB2 = target: T1, hCB2 (Homo sapiens, UniProt P34972); assay: Radioligand binding assay, CHO cells, hCB2
T1 construct: host or cells: CHO
Procedure: To define whether β–lactam derivative RGM8-51 could bind to CGRPR, CB2 and M3 receptors, in vitro binding assays were performed, using CHO cell lines transfected with these receptors. The degree of binding was determined by using specific radioligands for each receptor (Table 2, footnote).
These studies were subcontracted to Eurofins-CEREP or Eurofins-PANLABS. Briefly, agonists and antagonist assays were performed in cell cultures overexpressing the corresponding channel (CHO: TRPV1 and TRPA1; HEK293: TRPV3 and ASIC3). In vitro pharmacology, cellular channel functional assays: the compound was prepared in assay buffer to the final concentration, 10 μM. […] The agonist assay was conducted on fluorimeter instruments where the test compound, vehicle controls, and reference agonist were added to the assay plate after a fluorescence baseline was established. […] For the antagonist assay, the compound was pre-incubated for five minutes at room temperature, and then challenged with the EC80 concentration of the reference agonist after establishment of a fluorescence baseline. […] Binding assay results are expressed as a percent of control specific binding. […] Aqueous solubility (μM) was determined by comparing the peak area of the principal peak in a calibration standard (200 μM) containing organic solvent (methanol/water, 60/40, v/v) with the peak area of the corresponding peak in a buffer sample. […]

T1 sequence (P34972 whole entry): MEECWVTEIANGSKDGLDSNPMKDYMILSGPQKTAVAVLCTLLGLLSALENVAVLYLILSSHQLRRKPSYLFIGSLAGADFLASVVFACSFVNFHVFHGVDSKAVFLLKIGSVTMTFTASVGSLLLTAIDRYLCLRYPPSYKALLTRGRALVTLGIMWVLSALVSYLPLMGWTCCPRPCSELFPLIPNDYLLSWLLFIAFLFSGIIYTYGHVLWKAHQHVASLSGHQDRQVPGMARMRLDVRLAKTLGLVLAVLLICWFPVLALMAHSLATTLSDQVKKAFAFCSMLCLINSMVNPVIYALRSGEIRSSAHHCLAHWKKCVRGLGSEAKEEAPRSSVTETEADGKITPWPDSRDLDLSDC

SMILES: C[C@@H]1C(=O)N(C[C@H](Cc2ccccc2)N(Cc2ccccc2)Cc2ccccc2)[C@]1(Cc1ccccc1)C(=O)OC(C)(C)C [RGM8-51, 4(S)-Benzyl-3S-methyl-4-(tert-butoxy)carbonyl-1-[(2′S-dibenzylamino-3′-phenyl)prop-1′-yl]-2-oxoazetidine]
- mechanical sensitivity in the absence of neuropathy ([1]; baseline, non-operated): could not be observed
- mechanical hypersensitivity (paw withdrawal threshold) in CCI rats ([1]; i.p. 10 and 30 mg/kg): dose-dependently reverted paw withdrawal thresholds
- mechanical hypersensitivity (paw withdrawal threshold) in CCI rats ([1]; local (i.pl.) 10 µg): effect also being produced
- Binding hCB2 (%), inhibition of specific binding (hCB2; 10 μM, radioligand [3H]WIN 55212-2): did not show significant affinity
- inhibition at 10 µM (hCB2; radioligand [3H]WIN 55212-2, read-out: Binding hCB2 (%), inhibition of specific binding): 7.3 ± 0.3%
